According to ChEMBL document CHEMBL5154783, “Design, synthesis, and evaluation of novel 3-thiophene derivatives as potent fungistatic and fungicidal reagents based on a conformational restriction strategy” (Eur J Med Chem, 2022):
≈ marks a conversion by molar mass, not a printed value. Calls of active or inactive are those of the source. No cut-off for these calls is given here.

Tests used:
[1] = Cytotoxicity against human THLE-2 cells assessed as reduction in cell viability incubated for 96 hrs by MTT assay; assay type: toxicity, cell-based
[2] = tested on: Candida albicans; experiment: Antifungal activity against Candida albicans ATCC SC5314 assessed as fungal growth inhibition by CLSI based serial microbroth dilution method; assay type: functional
[3] = tested on: Candida albicans; experiment: Antifungal activity against Candida albicans CPCC400616 assessed as fungal growth inhibition by CLSI based serial microbroth dilution method; assay type: functional
[4] = tested on: Candida tropicalis; experiment: Antifungal activity against Candida tropicalis CGMCC 2.3739 assessed as fungal growth inhibition by CLSI based serial microbroth dilution method; assay type: functional
[5] = tested on: Cryptococcus neoformans; experiment: Antifungal activity against Cryptococcus neoformans CGMCC 2.3161 assessed as fungal growth inhibition by CLSI based serial microbroth dilution method; assay type: functional
[6] = tested on: Candida parapsilosis; experiment: Antifungal activity against Candida parapsilosis GIM 2.190 assessed as fungal growth inhibition by CLSI based serial microbroth dilution method; assay type: functional; conditions: Lodderomyces parapsilosis
[7] = tested on: Nakaseomyces glabratus; experiment: Antifungal activity against Candida glabrata clinical isolate assessed as fungal growth inhibition by CLSI based serial microbroth dilution method; assay type: functional
[8] = tested on: Pichia kudriavzevii; experiment: Antifungal activity against Candida krusei GIM 2.1 assessed as fungal growth inhibition by CLSI based serial microbroth dilution method; assay type: functional
[9] = tested on: Aspergillus fumigatus; experiment: Antifungal activity against Aspergillus fumigatus CGMCC 3.7795 assessed as fungal growth inhibition by CLSI based serial microbroth dilution method; assay type: functional
[10] = tested on: Candida albicans; experiment: Antifungal activity against FLC and ITC-resistant Candida albicans 17 assessed as fungal growth inhibition by CLSI based serial microbroth dilution method; assay type: functional
[11] = tested on: Candida albicans; experiment: Antifungal activity against FLC-resistant Candida albicans CaR assessed as fungal growth inhibition by CLSI based serial microbroth dilution method; assay type: functional
[12] = tested on: Candida albicans; experiment: Antifungal activity against FLC-resistant Candida albicans 901 assessed as fungal growth inhibition by CLSI based serial microbroth dilution method; assay type: functional
[13] = tested on: Candida albicans; experiment: Antifungal activity against FLC-resistant Candida albicans 904 assessed as fungal growth inhibition by CLSI based serial microbroth dilution method; assay type: functional
[14] = tested on: Candida albicans; experiment: Antifungal activity against FLC-resistant Candida albicans 632 assessed as fungal growth inhibition by CLSI based serial microbroth dilution method; assay type: functional
[15] = tested on: Candida albicans; experiment: Antifungal activity against FLC-resistant Candida albicans 100 assessed as fungal growth inhibition by CLSI based serial microbroth dilution method; assay type: functional
[16] = tested on: Candida albicans; experiment: Antifungal activity against FLC-resistant Candida albicans 103 assessed as fungal growth inhibition by CLSI based serial microbroth dilution method; assay type: functional
[17] = tested on: Candida albicans; experiment: Antifungal activity against FLC-resistant Candida albicans 311 assessed as fungal growth inhibition by CLSI based serial microbroth dilution method; assay type: functional
[18] = target: T1, Lanosterol 14-alpha demethylase (Candida albicans (strain SC5314 / ATCC MYA-2876) (Yeast), UniProt P10613); experiment: Inhibition of CYP51 in Candida albicans ATCC SC5314 assessed as lanosterol level at 0.0075 ug/ml measured after 18 hrs by GC-MS analysis relative to control; design: scale not given: the % may be the effect or the level left; conditions: at 0.0075 µg/mL
T1 sequence (P10613 whole entry): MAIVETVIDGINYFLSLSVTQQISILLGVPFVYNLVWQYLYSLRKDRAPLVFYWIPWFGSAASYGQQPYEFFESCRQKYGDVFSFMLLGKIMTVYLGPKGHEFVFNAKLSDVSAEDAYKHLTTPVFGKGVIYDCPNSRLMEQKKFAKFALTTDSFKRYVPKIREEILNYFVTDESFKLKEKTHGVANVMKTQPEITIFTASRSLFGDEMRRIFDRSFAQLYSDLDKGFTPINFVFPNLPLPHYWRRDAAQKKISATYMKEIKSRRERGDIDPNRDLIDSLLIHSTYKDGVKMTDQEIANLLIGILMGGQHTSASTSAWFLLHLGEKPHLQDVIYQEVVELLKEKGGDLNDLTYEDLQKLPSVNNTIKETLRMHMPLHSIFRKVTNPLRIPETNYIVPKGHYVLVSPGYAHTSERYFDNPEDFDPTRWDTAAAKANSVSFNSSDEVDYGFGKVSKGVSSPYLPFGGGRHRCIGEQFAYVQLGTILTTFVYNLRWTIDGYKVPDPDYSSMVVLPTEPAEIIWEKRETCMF

[19] = target: T1, Lanosterol 14-alpha demethylase; experiment: Inhibition of CYP51 in Candida albicans ATCC SC5314 assessed as ergosterol level at 0.0075 ug/ml measured after 18 hrs by GC-MS analysis (reference value: 96.93 %); design: scale not given: the % may be the effect or the level left; conditions: at 0.0075 µg/mL
[20] = target: T1, Lanosterol 14-alpha demethylase; experiment: Inhibition of CYP51 in Candida albicans ATCC SC5314 assessed as eburicol level at 0.0075 ug/ml measured after 18 hrs by GC-MS analysis relative to control; design: scale not given: the % may be the effect or the level left; conditions: at 0.0075 µg/mL
[21] = target: T1, Lanosterol 14-alpha demethylase; experiment: Inhibition of CYP51 in Candida albicans ATCC SC5314 assessed as 14alpha-methylergosta-8,24(28)-dien-3beta-6alpha-diol level at 0.0075 ug/ml measured after 18 hrs by GC-MS analysis relative to control; design: scale not given: the % may be the effect or the level left; conditions: at 0.0075 µg/mL
[22] = target: T1, Lanosterol 14-alpha demethylase; experiment: Inhibition of CYP51 in Candida albicans ATCC SC5314 assessed as unknown sterol level at 0.0075 ug/ml measured after 18 hrs by GC-MS analysis (reference value: 3.07 %); design: scale not given: the % may be the effect or the level left; conditions: at 0.0075 µg/mL
[23] = tested on: Cell membrane; experiment: Disruption of membrane integrity in Candida albicans ATCC SC5314 assessed as rupture of fungal cells at 16 ug/ml incubated for 48 hrs by transmission electron microscopy; assay type: subcellular; conditions: dose 16.0 µg/ml
[24] = tested on: Cell membrane; experiment: Disruption of membrane integrity in Candida albicans ATCC SC5314 assessed as cell membrane damage at 16 ug/ml incubated for 48 hrs by transmission electron microscopy; assay type: subcellular; conditions: dose 16.0 µg/ml
[25] = tested on: Cell membrane; experiment: Disruption of membrane integrity in Candida albicans ATCC SC5314 assessed as endogenous substances leakage at 16 ug/ml incubated for 48 hrs by transmission electron microscopy; assay type: subcellular; conditions: dose 16.0 µg/ml
[26] = tested on: Candida albicans; experiment: Antibiofilm activity against Candida albicans […] assessed as inhibition of […] metabolism within the biofilm measured after 3 hrs by XTT reduction assay; assay type: functional
[27] = tested on: Candida albicans; experiment: Antibiofilm activity against Candida albicans […] assessed as inhibition of […] metabolism within the biofilm measured after 6 hrs by XTT reduction assay; assay type: functional
[28] = tested on: Candida albicans; experiment: Antibiofilm activity against Candida albicans […] assessed as inhibition of […] metabolism within the biofilm measured after 18 hrs by XTT reduction assay; assay type: functional
[29] = tested on: Candida albicans; experiment: Antibiofilm activity against Candida albicans […] assessed as inhibition of […] metabolism activity in the biofilm measured after 24 hrs by XTT reduction assay; assay type: functional
[30] = tested on: Candida albicans; experiment: Antibiofilm activity against Candida albicans […] assessed as inhibition of […] metabolism activity in the biofilm measured after 48 hrs by XTT reduction assay; assay type: functional
[31] = tested on: Candida albicans; experiment: Fungicidal activity against Candida albicans CPCC400616 measured after 48 hrs; assay type: functional
[32] = tested on: Candida albicans; experiment: Fungicidal activity in Candida albicans CPCC400616 assessed as reduction in viable colony formation at 0.25 ug/ml measured within 16 hrs by time kill assay; assay type: functional, organism-based; conditions: dose 0.25 µg/ml
[33] = tested on: A549; experiment: Cytotoxicity against human A549 cells assessed as reduction in cell viability incubated for 96 hrs by MTT assay; assay type: functional, cell-based; conditions: A549, 96 h
[34] = tested on: MCF7; experiment: Cytotoxicity against human MCF7 cells assessed as reduction in cell viability incubated for 96 hrs by MTT assay; assay type: functional, cell-based; conditions: MCF7, 96 h
[35] = Cytotoxicity against human HepG2 cells assessed as reduction in cell viability incubated for 96 hrs by MTT assay; assay type: toxicity, cell-based
[36] = tested on: RAW264.7; experiment: Cytotoxicity against mouse RAW264.7 cells assessed as reduction in cell viability incubated for 96 hrs by MTT assay; assay type: functional, cell-based; conditions: RAW264.7, 96 h
[37] = Stability of the compound in human plasma assessed as parent compound remaining after […] by LC-MS/MS analysis; assay type: ADME, cell-free; conditions: read-out: Stability
[38] = Stability of the compound in human plasma assessed as parent compound remaining after 120 hrs by LC-MS/MS analysis; assay type: ADME, cell-free; conditions: read-out: Stability
[39] = Stability of the compound in human plasma assessed as half life measured after […] by LC-MS/MS analysis; assay type: ADME, cell-free
[40] = tested on: Cell membrane; experiment: Disruption of membrane integrity in Candida albicans ATCC SC5314 assessed as cell wall damage at 16 ug/ml incubated for 48 hrs by transmission electron microscopy; assay type: subcellular; conditions: dose 16.0 µg/ml

## Fc1cccc(F)c1CC1(Cn2cncn2)COC(c2ccc(-c3ccsc3)cc2)=N1 (stereo not given)
[1]
  IC50 at 96 h: > 50 µM
[2]
  MIC: 0.015 mg/L (≈ 0.0344 µM)
[3]
  MIC: 0.015 mg/L (≈ 0.0344 µM)
[4]
  MIC: 0.03 mg/L (≈ 0.0687 µM)
[5]
  MIC: 0.06 mg/L (≈ 0.137 µM)
[6]
  MIC: 0.125 mg/L (≈ 0.286 µM)
[7]
  MIC: 0.06 mg/L (≈ 0.137 µM)
[8]
  MIC: 0.125 mg/L (≈ 0.286 µM)
[9]
  MIC: 16 mg/L (≈ 36.7 µM)
[10]
  MIC: 4 mg/L (≈ 9.16 µM)
[11]
  MIC: 0.25 mg/L (≈ 0.573 µM)
[12]
  MIC: 0.25 mg/L (≈ 0.573 µM)
[13]
  MIC: 1 mg/L (≈ 2.29 µM)
[14]
  MIC: 4 mg/L (≈ 9.16 µM)
[15]
  MIC: 1 mg/L (≈ 2.29 µM)
[16]
  MIC: 1 mg/L (≈ 2.29 µM)
[17]
  MIC: 2 mg/L (≈ 4.58 µM)
[18]
  Activity: 31.91%
[19]
  Activity: 4.61%
[20]
  Activity: 24.69%
[21]
  Activity: 28.2%
[22]
  Activity: 1.92%
[23]
  Activity: Active
[24]
  Activity: Active
[25]
  Activity: Active
[26]
  MIC50: 0.125 mg/L (≈ 0.286 µM)
[27]
  MIC50: 0.125 mg/L (≈ 0.286 µM)
[28]
  MIC50: 2 mg/L (≈ 4.58 µM)
[29]
  MIC50: 16 mg/L (≈ 36.7 µM)
[30]
  MIC50: > 64 mg/L
[31]
  MFC: 0.25 mg/L (≈ 0.573 µM)
[32]
  Activity: Active
[33]
  IC50: > 50 µM
[34]
  IC50: > 50 µM
[35]
  IC50 at 96 h: 39.3 µM
[36]
  IC50: 32.5 µM
[37]
  remaining: 96.8%
[38]
  remaining at 120 h: 98.2%
[39]
  half-life: > 4.8 h
[40]
  Activity: Active
